The values that follow come from article PMC7031302, “Design and synthesis of new energy restriction mimetic agents: Potent anti-tumor activities of hybrid motifs of aminothiazoles and coumarins” (Scientific Reports, 2020).

Format in all cases: cell-based, Human
The test system of one assay is HT-29. Nature of the assay: MTT cell viability, HT-29. Particulars: for IC50: read-out: half-maximal inhibitory concentration (IC50) HT-29. As to the method: (§1) The potential cytotoxicity of 24 candidate compounds was initially evaluated at a single concentration level (5 μM). Then a full dose-response curve was plotted for each compound against different colorectal cancer cell lines (HCT116 and HT-29) by MTT assay after 72 h treatments. 4-hydroxycoumarin, OSU-CG5, and OSU-CG12 were used as positive controls. […] Compounds 9b, 9c, 9f, 9i, 11b, and 11c were selected for further studies to determine the full dose-response survival curves using different concentrations (0.1–20 µM) against CRC cell lines and normal fibroblast cell line (F180) at different time points (Fig. 2A–2F and supplementary material Page S63 and S64).
(§2) Human colorectal carcinoma cell lines (HCT116) and (HT-29) were obtained from the European Collection of Cell Cultures (ECACC, UK). The cell lines were cultured in Roswell Park Memorial Institute medium (RPMI-1640, Sigma-Aldrich-St. Louis, MO, USA) supplemented with 10% fetal bovine serum (Sigma-Aldrich-St. Louis, MO, USA) and 1% penicillin/streptomycin (Sigma-Aldrich- Louis, MO, USA). F180 cell line (Human Normal Fibroblast), was kindly given by professor Ekkehard Dikomey (University Cancer Center, Hamburg University, Hamburg, Germany) and were cultured in Dulbecco’s Modified Eagle’s medium (DMEM, Sigma-Aldrich-St. Louis, MO, USA) supplemented with 10% fetal bovine serum (Sigma-Aldrich-St. Louis, MO, USA) and 1% penicillin/streptomycin (Sigma-Aldrich- Louis, MO, USA). All cell incubations were done at 37 °C in a humidified atmosphere of 5% CO2.
(§3) Cell viability was assessed using, 3-(4,5-dimethylthiazol-2-yl)-2,5-diphenyltetrazolium bromide (MTT) assay as previously described. In summary, cancer cell lines or F180 were seeded in complete medium at the density of 3 × 10^3/well and 5 × 10^3/well respectively in 96 well flat-bottom plates. After 24 h, cells were incubated with the candidate compounds at the indicated concentration for (24, 48 or 72 h). DMSO was used as vehicle control and 4-Hydroxycoumarin was purchased from (Sigma-Aldrich, St. Louis, MO, USA) and Cisplatin from Hospira UK Ltd. At the end of treatment, the media were aspirated from each well and incubated with 200 µL of MTT tetrazolium dye (Sigma-Aldrich, St. Louis, MO, USA) at a final concentration of 0.5 mg/ml for 2 h at 37 °C. The reduced MTT crystals were solubilized in 200 µl/well of DMSO and the absorbance was measured at 570 nm using a microplate reader (Thermo-Scientific, Vantaa, Finland).

The subject of the next assay is HCT116. Nature of the assay: MTT cell viability, HCT116. To be noted: for IC50: read-out: half-maximal inhibitory concentration (IC50) HCT116. As to the method:
as §1, §2, §3

For assay [1], the system named is colorectal cancer cell lines, HCT116 and HT-29. Nature of the assay: MTT cell viability, colorectal cancer cell lines (summary statements). To be noted: for anticancer activities in initial screening, in words: HT-29 and HCT116 cancer cell lines; for IC50: both cell lines, summary statement. As to the method: as §1, §2, §3
Where [2] appears, read: Homo sapiens, HT-29, 72 h, 72 h, MTT assay, mean ± SD (n = 6).
Where [3] appears, read: Homo sapiens, HCT-116, 72 h, 72 h, MTT assay, mean ± SD (n = 6).
[4] abbreviates: 72 h, MTT assay, mean ± SD (n = 6).

Like-named read-outs stand apart in the source and are kept apart here.

In the case of `O=c1cc(O)c2ccccc2o1` [4-Hydroxycoumarin, reference compound], the IC50 in the assay on HT-29 (Homo sapiens, HT-29, 72 h) was more than 200 µM; in the assay on HCT116 (Homo sapiens, HCT-116, 72 h), more than 200 µM.

Turning to `Cc1cc(=O)oc2cc(Nc3nc(-c4ccccc4)cs3)ccc12` [Compound 9a, 4-Methyl-7-(4-phenylthiazol-2-ylamino)-2H-chromen-2-one], the IC50 with HT-29 (setting [2]) was 1.54 ± 0.02 µM. The “anticancer activities in initial screening, in words” value (shortened to “anticancer activities”) in assay [1] was “significant anticancer activities”.

On to `Cc1cc(=O)oc2cc(Nc3nc(-c4ccc(Cl)cc4)cs3)ccc12` [Compound 9c, 7-(4-(4-Chlorophenyl)thiazol-2-ylamino)-4-methyl-2H-chromen-2-one], for which the IC50 is 0.37 ± 0.077 µM with HT-29 (setting [2]), less than 0.6 µM in assay [1] and 0.31 ± 0.014 µM in the assay with HCT116 (setting [3]). Besides, the “anticancer activities” value in assay [1] was “significant anticancer activities”.

Consider `CCOc1ccc(-c2csc(Nc3ccc4c(C)cc(=O)oc4c3)n2)cc1` [Compound 9d, 7-(4-(4-Ethoxyphenyl)thiazol-2-ylamino)-4-methyl-2H-chromen-2-one], for which the IC50 in the assay on HT-29 (setting [2]) worked out at 3.03 ± 0.0205 µM; in the assay on HCT116 (setting [3]), 3.21 ± 0.88 µM.

On to `COc1cccc(-c2csc(Nc3ccc4c(C)cc(=O)oc4c3)n2)c1` [Compound 9e, 7-(4-(3-Methoxyphenyl)thiazol-2-ylamino)-4-methyl-2H-chromen-2-one], for which the IC50 in the assay with HT-29 (setting [2]) turned out to be 3 ± 0.159 µM; in the assay on HCT116 (setting [3]), 3.05 ± 0.14 µM.

With `Cc1cc(=O)oc2cc(Nc3nc(-c4cccc(F)c4)cs3)ccc12` [Compound 9g, 7-(4-(3-Fluorophenyl)thiazol-2-ylamino)-4-methyl-2H-chromen-2-one], the IC50 with HT-29 (setting [2]) stood at 2.91 ± 1.25 µM; in the assay on HCT116 (setting [3]), 3.5 ± 0.93 µM.

Turning to `Cc1cc(=O)oc2cc(Nc3nc(-c4ccccc4[N+](=O)[O-])cs3)ccc12` [Compound 9h, 4-Methyl-7-(4-(2-nitrophenyl)thiazol-2-ylamino)-2H-chromen-2-one], the IC50 with HT-29 (setting [2]) and in the assay on HCT116 (setting [3]) was more than 30 µM each time.

Take `COc1ccccc1-c1csc(Nc2ccc3c(C)cc(=O)oc3c2)n1` [Compound 9i, 7-(4-(2-Methoxyphenyl)thiazol-2-ylamino)-4-methyl-2H-chromen-2-one]: the IC50 in the assay on HT-29 (setting [2]) was 0.32 ± 0.017 µM; in assay [1], less than 0.6 µM; in the assay on HCT116 (setting [3]), 0.32 ± 0.041 µM. Besides, the “anticancer activities” value in assay [1] is recorded as “significant anticancer activities”.

For the molecule `CCc1cc(=O)oc2cc(Nc3nc(-c4ccccc4)cs3)ccc12` [Compound 10a, 4-Ethyl-7-(4-phenylthiazol-2-ylamino)-2H-chromen-2-one], the IC50 in the assay with HT-29 (setting [2]) and in the assay on HCT116 (setting [3]) was more than 30 µM each time.

Regarding `CCc1cc(=O)oc2cc(Nc3nc(-c4ccc(Br)cc4)cs3)ccc12` [Compound 10b, 7-(4-(4-Bromophenyl)thiazol-2-ylamino)-4-ethyl-2H-chromen-2-one], the IC50 in the assay with HT-29 (setting [2]) came to 2.97 ± 0.2 µM; in the assay with HCT116 (setting [3]), 3.03 ± 2.25 µM.

Regarding `CCc1cc(=O)oc2cc(Nc3nc(-c4ccc(Cl)cc4)cs3)ccc12` [Compound 10c, 7-(4-(4-Chlorophenyl)thiazol-2-ylamino)-4-ethyl-2H-chromen-2-one], the IC50 with HT-29 (setting [2]) was 1.3 ± 0.127 µM; in the assay on HCT116 (setting [3]) it was 3.54 ± 0.53 µM.

With `CCc1cc(=O)oc2cc(Nc3nc(-c4cccc(OC)c4)cs3)ccc12` [Compound 10e, 4-Ethyl-7-(4-(3-methoxyphenyl)thiazol-2-ylamino)-2H-chromen-2-one], the IC50 in the assay on HT-29 (setting [2]) was 13.1 ± 1.39 µM; in the assay on HCT116 (setting [3]) it was more than 30 µM.

Consider `CCc1cc(=O)oc2cc(Nc3nc(-c4cccc([N+](=O)[O-])c4)cs3)ccc12` [Compound 10f, 4-Ethyl-7-(4-(3-nitrophenyl)thiazol-2-ylamino)-2H-chromen-2-one], for which the IC50 with HT-29 (setting [2]) was 4.41 ± 1.37 µM; in the assay on HCT116 (setting [3]), 10.3 ± 3.15 µM.

Take `CCc1cc(=O)oc2cc(Nc3nc(-c4cccc(F)c4)cs3)ccc12` [Compound 10g, 4-Ethyl-7-(4-(3-fluorophenyl)thiazol-2-ylamino)-2H-chromen-2-one]: the results for the IC50 with HT-29 (setting [2]) and in the assay on HCT116 (setting [3]) were 2.34 ± 0.615 µM and 4.08 ± 2.68 µM, respectively.

`CCc1cc(=O)oc2cc(Nc3nc(-c4ccccc4[N+](=O)[O-])cs3)ccc12` [Compound 10h, 4-Ethyl-7-(4-(2-nitrophenyl)thiazol-2-ylamino)-2H-chromen-2-one]: the IC50 in the assay on HT-29 (setting [2]) was 1.68 ± 0.47 µM; in the assay on HCT116 (setting [3]), 4.73 ± 1.93 µM.

Regarding `CCc1cc(=O)oc2cc(Nc3nc(-c4ccccc4OC)cs3)ccc12` [Compound 10i, 4-Ethyl-7-(4-(2-methoxyphenyl)thiazol-2-ylamino)-2H-chromen-2-one], the figures for the IC50 in the assay on HT-29 (setting [2]) and in the assay on HCT116 (setting [3]) were 3.96 ± 1.65 µM and 13.5 ± 0.2 µM, respectively.

With `CCCc1cc(=O)oc2cc(Nc3nc(-c4ccccc4)cs3)ccc12` [Compound 11a, 7-(4-Phenylthiazol-2-ylamino)-4-propyl-2H-chromen-2-one], the IC50 in the assay with HT-29 (setting [2]) was 2.13 ± 0.3 µM; with HCT116 (setting [3]) it was 6.76 ± 0.28 µM.

For the molecule `CCCc1cc(=O)oc2cc(Nc3nc(-c4ccc(Br)cc4)cs3)ccc12` [Compound 11b, 7-(4-(4-Bromophenyl)thiazol-2-ylamino)-4-propyl-2H-chromen-2-one], the IC50 in the assay with HT-29 (setting [2]) is 0.25 ± 0.004 µM; in assay [1], less than 0.6 µM; in the assay on HCT116 (setting [3]), 0.26 ± 0.016 µM. Besides, the “anticancer activities” value in assay [1] is “significant anticancer activities”.

Regarding `CCCc1cc(=O)oc2cc(Nc3nc(-c4ccc(Cl)cc4)cs3)ccc12` [Compound 11c, 7-(4-(4-Chlorophenyl)thiazol-2-ylamino)-4-propyl-2H-chromen-2-one], the IC50 is 0.33 ± 0.032 µM in the assay with HT-29 (setting [2]), less than 0.6 µM in assay [1] and 0.34 ± 0.0009 µM in the assay with HCT116 (setting [3]). The “anticancer activities” value in assay [1] was “significant anticancer activities”.

Consider `CCCc1cc(=O)oc2cc(Nc3nc(-c4cccc(OC)c4)cs3)ccc12` [Compound 11e, 7-(4-(3-Methoxyphenyl)thiazol-2-ylamino)-4-propyl-2H-chromen-2-one], for which the IC50 stood at 8.89 ± 0.813 µM in the assay on HT-29 (setting [2]) and 28.6 ± 6.56 µM in the assay on HCT116 (setting [3]).

Take `CCCc1cc(=O)oc2cc(Nc3nc(-c4cccc([N+](=O)[O-])c4)cs3)ccc12` [Compound 11f, 7-(4-(3-Nitrophenyl)thiazol-2-ylamino)-4-propyl-2H-chromen-2-one]: the IC50 in the assay with HT-29 (setting [2]) was 3.66 ± 0.038 µM; with HCT116 (setting [3]), more than 30 µM.

`CCCc1cc(=O)oc2cc(Nc3nc(-c4cccc(F)c4)cs3)ccc12` [Compound 11g, 7-(4-(3-Fluorophenyl)thiazol-2-ylamino)-4-propyl-2H-chromen-2-one]: the IC50 in the assay with HT-29 (setting [2]) worked out at 1.8 ± 0.76 µM; in the assay with HCT116 (setting [3]) it was 4.08 ± 1.36 µM.

For the molecule `CCCc1cc(=O)oc2cc(Nc3nc(-c4ccccc4[N+](=O)[O-])cs3)ccc12` [Compound 11h, 7-(4-(2-Nitrophenyl)thiazol-2-ylamino)-4-propyl-2H-chromen-2-one], the IC50 was determined as 3.96 ± 0.014 µM in the assay on HT-29 (setting [2]) and 6.3 ± 0.605 µM in the assay with HCT116 (setting [3]).

For the molecule `CCC(CC)CN1C(=O)S/C(=C\c2ccc(O)c(C(F)(F)F)c2)C1=O` [OSU-CG5, reference compound], the values for the IC50 in the assay on HT-29 (setting [4]) and in the assay on HCT116 (setting [4]) were 10.1 ± 0.373 µM and 2.85 ± 0.111 µM, respectively.

For `N.N.[Cl][Pt][Cl]` [cisplatin, Cisplatin, reference compound], in the assay on HT-29 (single compound, 72 h MTT), the “IC50 of cisplatin as a single compound, HT-29” value stood at 1.81 µg/mL. Moreover, the “IC50 of cisplatin as a single compound, HCT116” value with HCT116 (single compound, 72 h MTT) is 1.93 µg/mL.
